Data from US8044034B2, “Nanoparticle derivatives of gemcitabine” (Centre National de la Recherche Scientifique (C.N.R.S.), priority 2004, dated 2011).
Like-named read-outs stand apart in the source and are kept apart here.

How the values were obtained:
[1] = Nanoparticle size by quasi-elastic light diffusion (Coulter N4MD nanosizer); type: physicochemical
Experimental: The size of the colloidal particles obtained in example 1 were monitored by quasi-elastic light diffusion using a nanosizer (Coulter® N4MD, Coulter Electronics, Hialeah, USA).
The colloidal suspensions were diluted in MilliQ® water so that the number of particles per ml was suitable for the measuring device.

MCF-7 = experiment: Cytotoxic activity, MTT test, 72 hours exposure; type: cell-based, human; conditions: concentration at which 50% of the cells are alive, read-out: CI50 (μM) after 72 hours MCF-7
Experimental: (§1) The cytotoxic activity of SQgem was evaluated on two human tumoral cell lines (KB3-1, cancer of the naso-pharynx and MCF-7, breast cancer) by exposure to SQgem for 72 hours, and compared with the activity of gemcitabine.
(§2) The lines were maintained in DMEM medium with 10% foetal calf serum, 2 mM glutamine, 50 mg/l antibiotics, at 37° C., 5% CO2, 95% humidity. The cells were seeded onto a 96 well plate in an amount of 1×10^4/well; after 24 hours, different dilutions of gemcitabine and SQgem particle were added and incubated for 72 hours. Cellular viability was then determined by the MTT test. The results are expressed as CI50, which is the concentration of the molecule at which 50% of the cells are alive.

KB3-1 = experiment: Cytotoxic activity, MTT test, 72 hours exposure; type: cell-based, human; conditions: for IC50: KB3-1 cells, 72 hours, MTT test, concentration at which 50% of the cells are alive, read-out: CI50 (μM) after 72 hours KB3-1
Experimental: as §1, §2

two cell lines = experiment: Cytotoxic activity at different times in the presence and absence of inserts (MTT test); type: cell-based, human; conditions: 100 μM SQgem nanoparticles, inserts 0.02 μm, n=3
Experimental: The cytotoxic activity of SQgem at different times was also determined by incubating 100 μM SQgem nanoparticles on two cell lines in the presence and absence of inserts (0.02 μm) (MTT test) (n=3).

[2] = Surface tension at constant surface area (Wilhemy blade tensometer); type: physicochemical; conditions: aqueous solution with 10% ethanol
Experimental: The surface tension of an aqueous SQgem solution was measured at constant surface area at different concentrations using a Wilhemy blade tensometer and compared with that of a solution of gemcitabine (Gem) and 4-(N)-stearoylgemcitabine (C18gem) (Myhren F et al, Gemcitabine derivatives, US patent no. 2002/0042391).
To prepare the various dilutions of SQgem and C18gem, it was necessary to start from an ethanolic solution; the percentage of ethanol in the final solution was 10% (the presence of ethanol reduces the surface tension of water from 72 mN/m to about 50 mN/m).

[3] = concentration in final suspension 1 mg/ml
[4] = concentration in final suspension 2 mg/ml
[5] = concentration in final suspension 4 mg/ml

## 4-(N)-squalenoyl acyclovir [SQACV]
[1]; [3]
  Mean hydrodynamic diameter (nm): 217.5 ± 37.9 nm
  Polydispersity index: 0.038

## CC(C)=CCCC(C)=CCCC(C)=CCCC=C(C)CCC=C(C)CCC(=O)OC[C@@H]1CC[C@H](n2cnc3c(=O)[nH]cnc32)O1 [5′-squalenoyl-didanosine]
[1]; concentration not given
  Mean hydrodynamic diameter / size of the nanoparticles: 152 nm
  Polydispersity index: 0.1

## CC(C)=CCCC(C)=CCCC(C)=CCCC=C(C)CCC=C(C)CCC(=O)OC[C@H]1O[C@@H](n2cc(C)c(=O)[nH]c2=O)C[C@@H]1N=[N+]=[N-] [5′-squalenoyl-zidovudine, 3-azido-5-(5-methyl-2,4-dioxo-3,4-dihydro-2H-pyrimidin-1-yl)-tetrahydro-furan-2-yl-methyl (2S,3S,5R)-4,8,13,17,21-pentamethyl-docosa-4,8,12,16,20-pentaenoate]
[1]; concentration not given
  Mean hydrodynamic diameter / size of the nanoparticles: 150-170 nm

## Nc1ccn([C@@H]2O[C@H](CO)[C@@H](O)C2(F)F)c(=O)n1 [Gemcitabine, 2′,2′-difluoro-2′-deoxycytidine]
MCF-7; Homo sapiens, MCF7, MCF-7 cells
  IC50: 29 ± 13.9 µM
KB3-1; Homo sapiens, KB 3-1
  IC50: 50.8 ± 49.8 µM

## CC(C)=CCCC(C)=CCCC(C)=CCCC=C(C)CCC=C(C)CCC(=O)Nc1ccn([C@@H]2O[C@H](CO)[C@@H](O)[C@@H]2O)c(=O)n1 [SQara-C, 4-(N)-squalenoylcytarabine]
[1]; [3]
  Mean hydrodynamic diameter (nm): 110.4±34.1 nm
  Polydispersity index: 0.168

## CC(C)=CCCC(C)=CCCC(C)=CCCC=C(C)CCC=C(C)CCC(=O)Nc1ccn([C@@H]2O[C@H](CO)[C@@H](O)C2(F)F)c(=O)n1 [SQgem, 4-(N)-squalenoylgemcitabine]
Two cell lines
  anti-cancer activity with inserts with respect to cytotoxicity tests in the absence of an insert: not reduced
[2]
  concentration at which the surface tension is reduced (nanoparticle formation): 4 µM
[1]; [3]
  Mean hydrodynamic diameter (nm): 126.2 nm
  Polydispersity index: 0.26
[1]; [4]
  Mean hydrodynamic diameter (nm): 150.4 nm
  Polydispersity index: 0.09
[1]; [5]
  Mean hydrodynamic diameter (nm): 171.3 nm
  Polydispersity index: 0.08
MCF-7; MCF-7 cells
  IC50: 4.8 ± 3.9 µM
KB3-1
  IC50: 8.8 ± 4.1 µM
KB3-1; from CI50 on KB3-1 and MCF-7, 72 hours
  times more cytotoxic than the gemcitabine molecule: five to seven times more toxic
